From EP1268431B1 (Wyeth, priority 2000, dated 2001)
Where “and” joins values, the source holds several entries; their conditions need not be identical. Equal entries are not always repeated. Where two headings read alike, the source gives them in different places.

How the values were obtained:
[1] = test system: Rat2 fibroblasts stably transformed with a plasmid containing a CMV promotor controlled v-Src/Hu c-Src fusion gene; assay: Anchorage Independent Src-transformed Fibroblast Proliferation Assay
c-Src = target: T1, c-Src (Homo sapiens, UniProt P12931); assay: c-Src Kinase Assay (ELISA format); format: biochemical; conditions: for inhibition at 0.01 µM: at 10 nM
T1 construct: purchased Upstate Biotechnologies
Method: Inhibitors of Src (partially purified preparation purchased from Upstate Biotechnologies) tyrosine kinase activity are analyzed in an ELISA format. […] Horseradish Peroxidase (HRP)-conjugated anti-phosphotyrosine is used to detect phosphorylated peptide via a color reaction. Conditions recommended by the manufacturer are employed.
Reaction conditions: Five microliter aliquots of each compound prepared fresh at the time of the assay are added as a solution in 10mM HEPES pH 7.5, 10% DMSO to the reaction well. Thirty-five microliters of reaction mix containing Src, buffer and peptide/bovine serum albumin mix are added to the compound wells and incubated at 30°C for 10 minutes (reaction buffer: 50mM TrisHCl pH 7.5, 10mM MgCl2, 0.1mM EGTA, 0.5mM Na3VO4). The reaction is started by addition of 10 microliters of ATP, incubated at 30°C for 1 hour, and stopped by addition of 20 microliters of 0.5M EDTA. The reaction mixture with the phosphorylated peptide is then transferred to a streptavidin-coated microtiter plate (provided in the kit) and allowed to bind for 20 minutes. Unbound peptide and reaction mixture is decanted and the plate is washed with PBS six times. HRP-conjugated phosphotyrosine antibody supplied in the kit is incubated with the plate for one hour, then decanted. The plate is again washed with PBS six times.
Activity is determined as % inhibition as calculated by the formula: (1 - Abs/Abs(max)) x 100 = % inhibition.

[2] = Rattus norvegicus, Rat2, 120 h, read-out: anch-indep src-tx fib IC50, suspension growth, MTS on Day 5
[3] = read-out: anch-indep src-tx fib IC50, suspension growth, MTS on Day 5

Compound | IC50 [1, 2] [nM] | IC50 (c-Src) | inhibition at 10 µM (c-Src; at 10 µM) [%] | IC50 [1, 3] [nM] | inhibition at 0.01 µM (c-Src) [%]
COc1ccc(/C=C/c2ccc3c(Nc4cc(OC)c(Cl)cc4Cl)c(C#N)cnc3c2)cc1 [Example 54, 4-(2,4-Dichloro-5-methoxyanilino)-7-[(E)-2-(4-methoxyphenyl)ethenyl]-3-quinolinecarbonitrile] | > 10000 | 62 nM | – | – | –
COc1cc(Nc2c(C#N)cnc3cc(-c4ccc(CN5CCC[C@@H]5C(N)=O)o4)ccc23)c(Cl)cc1Cl [Example 47, (2R)-1-({5-[3-Cyano-4-(2,4-dichloro-5-methoxyanilino)-7-quinolinyl]-2-furyl}methyl)-2-pyrrolidinecarboxamide] | 1170 | 1.1 nM | – | – | –
COc1cc(Nc2c(C#N)cnc3cc(-c4cccc(CCN5CCOCC5)c4)ccc23)c(Cl)cc1Cl [Example 28, 4-(2,4-Dichloro-5-methoxyanilino)-7-{3-[2-(4-morpholinyl)ethyl]phenyl}-3-quinolinecarbonitrile] | 4100 | 25 nM | – | – | –
COc1cc(Nc2c(C#N)cnc3cc(-c4ccc(CN5CCCCC5C(=O)O)cc4)ccc23)c(Cl)cc1Cl (stereo not drawn) [Example 147, 1-{4-[3-cyano-4-(2,4-dichloro-5-methoxyanilino)-7-quinolinyl]benzyl}-2-piperidinecarboxylic acid] | 4600 | 0.47 nM | – | – | –
COc1cc(Nc2c(C#N)cnc3cc(/C=C/c4ccccc4)ccc23)c(Cl)cc1Cl [Example 139, 4-(2,4-dichloro-5-methoxyanilino)-7-[(E)-2-phenylethenyl]-3-quinolinecarbonitrile] | > 10000 | 300 nM and 340 nM | – | – | –
COc1cc(Nc2c(C#N)cnc3cc(/C=C/C(=O)O)ccc23)c(Cl)cc1Cl [Example 99, (E)-3-[3-Cyano-4-(2,4-dichloro-5-methoxyanilino)-7-quinolinyl]-2-propenoic acid] | > 10000 | 44 nM | – | – | –
COc1cc(Nc2c(C#N)cnc3cc(-c4ccccc4CN4CCOCC4)ccc23)c(Cl)cc1Cl [Example 115, 4-(2,4-Dichloro-5-methoxyanilino)-7-[2-(4-morpholinylmethyl)phenyl]-3-quinolinecarbonitrile] | > 10000 | 5000 nM | – | – | –
N#Cc1cnc2cc(C#CCCCN3CCOCC3)ccc2c1Nc1ccc(Cl)cc1Cl [Example 11, 4-(2,4-Dichloroanilino)-7-[5-(4-morpholinyl)-1-pentynyl]-3-quinolinecarbonitrile] | > 10000 | 43 nM | – | – | –
COc1cc(Nc2c(C#N)cnc3cc(-c4ccc(C(=O)O)cc4)ccc23)c(Cl)cc1Cl [Example 121, 4-[3-Cyano-4-(2,4-dichloro-5-methoxyanilino)-7-quinolinyl]benzoic acid] | > 10000 | 4.8 nM and 1.8 nM | – | – | –
COc1cc(Nc2c(C#N)cnc3cc(-c4ccc(CN5CCOCC5)cc4)ccc23)c(Cl)cc1F [Example 235, 4-(2-chloro-4-fluoro-5-methoxyanilino)-7-[4-(4-morpholinylmethyl)phenyl]-3-quinolinecarbonitrile] | 790 | 4.1 nM | – | – | –
COc1cc(Nc2c(C#N)cnc3cc(-c4cccc5ccccc45)ccc23)c(Cl)cc1Cl [Example 116, 4-(2,4-Dichloro-5-methoxyanilino)-7-(1-naphthyl)-3-quinolinecarbonitrile] | > 10000 | – | 25 | – | –
COc1cc(Nc2c(C#N)cnc3cc(-c4ccc(CNCCS(C)(=O)=O)o4)ccc23)c(Cl)cc1Cl [Example 77, 4-(2,4-Dichloro-5-methoxyanilino)-7-[5-({[2-(methylsulfonyl)ethyl]amino}methyl)-2-furyl]-3-quinolinecarbonitrile] | 420 | 21 nM | – | – | –
COc1cc(Nc2c(C#N)cnc3cc(-c4cnc(C=O)n4C)c(OC)cc23)c(Cl)cc1Cl [Example 228, 4-(2,4-dichloro-5-methoxyanilino)-7-(2-formyl-1-methyl-1H-imidazol-5-yl)-6-methoxy-3-quinolinecarbonitrile] | > 10000 | 46 nM | – | – | –
COc1ccc(Cl)c(Nc2c(C#N)cnc3cc(-c4ccc(CN5CCOCC5)cc4)ccc23)c1 [Example 236, 4-(2-chloro-5-methoxyanilino)-7-[4-(4-morpholinylmethyl)phenyl]-3-quinolinecarbonitrile] | 570 | 3 nM | – | – | –
CN(C)CC#Cc1ccc2c(Nc3ccc(Cl)cc3Cl)c(C#N)cnc2c1 [Example 15, 4-(2,4-Dichloroanilino)-7-[3-(dimethylamino)-1-propynyl]-3-quinolinecarbonitrile] | > 10000 | 63 nM | – | – | –
4-[(2,4-Dichloro-5-methoxyphenyl)amino]-7-[4-(4-morpholinyl)phenyl]-3-quinolinecarbonitrile [Example 128] | – | 3.2 nM | – | 640 | –
COc1cc(Nc2c(C#N)cnc3cc(-c4ccc(CN5CCCCC5)s4)ccc23)c(Cl)cc1Cl [Example 78, 4-(2,4-Dichloro-5-methoxyanilino)-7-[5-(1-piperidinylmethyl)-2-thienyl]-3-quinolinecarbonitrile] | 140 | 1.3 nM | – | – | –
N#Cc1cnc2cc(C=CCCCCN3CCOCC3)ccc2c1Nc1ccc(Cl)cc1Cl (mixture of isomers) [Example 16, 4-(2,4-Dichloroanilino)-7-[(E/Z)-6-(4-morpholinyl)-1-hexenyl]-3-quinolinecarbonitrile] | > 10000 | 44 nM | – | – | –
CCOC(=O)C1CCCCN1Cc1ccc(-c2ccc3c(Nc4cc(OC)c(Cl)cc4Cl)c(C#N)cnc3c2)cc1 (stereo not drawn) [Example 145, ethyl 1-{4-[3-cyano-4-(2,4-dichloro-5-methoxyanilino)-7-quinolinyl]benzyl}-2-piperidinecarboxylate] | > 10000 | – | – | – | 17
COc1cc(Nc2c(C#N)cnc3cc(-c4ccc(CNCCS(=O)(=O)c5ccccc5)cc4)ccc23)c(Cl)cc1Cl [Example 85, 4-(2,4-Dichloro-5-methoxyanilino)-7-[4-({[2-(phenylsulfonyl)ethyl]amino}methyl)phenyl]-3-quinolinecarbonitrile] | 10200 | 36 nM and 41 nM | – | – | –
COc1cc(Nc2c(C#N)cnc3cc(-c4ccc(CN5CCCC(C(=O)O)C5)cc4)ccc23)c(Cl)cc1Cl (stereo not drawn) [Example 149, 1-(4-{3-cyano-4-[(2,4-dichloro-5-methoxyphenyl)amino]-7-quinolinyl}benzyl)-3-piperidinecarboxylic acid] | 2500 | 0.67 nM | – | – | –
COc1cc(Nc2c(C#N)cnc3cc(C#Cc4ccccn4)ccc23)c(Cl)cc1Cl [Example 91, 4-(2,4-Dichloro-5-methoxyanilino)-7-[2-(2-pyridinyl)ethynyl]-3-quinolinecarbonitrile] | > 10000 | 3.1 nM | – | – | –
COc1cc(Nc2c(C#N)cnc3cc(-c4ccc5ccccc5c4)ccc23)c(Cl)cc1Cl [Example 117, 4-(2,4-Dichloro-5-methoxyanilino)-7-(2-naphthyl)-3-quinolinecarbonitrile] | 6900 | 210 nM and 160 nM and 120 nM | – | – | –
COc1cc(Nc2c(C#N)cnc3cc(-c4cccc(CCN5CCOCC5)c4)c(OC)cc23)c(Cl)cc1Cl [Example 38, 4-(2,4-Dichloro-5-methoxyanilino)-6-methoxy-7-{3-[2-(4-morpholinyl)ethyl]phenyl}-3-quinolinecarbonitrile] | 12700 | 81 nM | – | 10600 | –
COc1cc(Nc2c(C#N)cnc3cc(-c4ccc(Oc5ccc(CN6CCOCC6)cc5)nc4)ccc23)c(Cl)cc1Cl [Example 193, 4-(2,4-dichloro-5-methoxyanilino)-7-{6-[4-(4-morpholinylmethyl)phenoxy]-3-pyridinyl)-3-quinolinecarbonitrile] | > 10000 | 34 nM | – | – | –
COc1cc(Nc2c(C#N)cnc3cc(-c4ccc(-c5ccccc5)cc4)ccc23)c(Cl)cc1Cl [Example 165, 7-[1,1'-biphenyl]-4-yl-4-(2,4-dichloro-5-methoxyanilino)-3-quinolinecarbonitrile] | > 10000 | – | – | – | 28
COc1cc(Nc2c(C#N)cnc3cc(-c4ccc(CCCCN5CCOCC5)s4)ccc23)c(Cl)cc1Cl [Example 22, 4-(2,4-Dichloro-5-methoxyanilino)-7-{5-[4-(4-morpholinyl)butyl]-2-thienyl}-3-quinolinecarbonitrile] | 600 | 6.8 nM | – | – | –
COc1cc(Nc2c(C#N)cnc3cc(-c4ccc(CN(C)C)cc4)ccc23)c(Cl)cc1Cl [Example 86, 4-(2,4-Dichloro-5-methoxyanilino)-7-{4-[(dimethylamino)methyl]phenyl}-3-quinolinecarbonitrile] | 210 | 1.1 nM | – | – | –
COc1cc(Nc2c(C#N)cnc3cc(-c4ccc(CNCCc5ccccn5)cc4)ccc23)c(Cl)cc1Cl [Example 229, 4-(2,4-dichloro-5-methoxyanilino)-7-[4-({[2-(2-pyridinyl)ethyl]amino}methyl)phenyl]-3-quinolinecarbonitrile] | 450 | 2.3 nM | – | – | –
COc1cc(Nc2c(C#N)cnc3cc(-c4ccc(CCN5CCOCC5)cc4)ccc23)c(Cl)cc1Cl [Example 27, 4-(2,4-Dichloro-5-methoxyanilino)-7-{4-[2-(4-morpholinyl)ethyl]phenyl}1-3-quinolinecarbonitrile] | 1020 | – | – | – | –
